This note sets out measurements from the supplement of paper PMC10307832.

Test in all cases: relative viability (nuclei count vs DMSO), 5 days (fraction); higher = more cells survive
Compound in the test “Omipalisib + Lapatinib”: COc1ncc(-c2ccc3nccc(-c4ccnnc4)c3c2)cc1NS(=O)(=O)c1ccc(F)cc1F [Omipalisib] + CS(=O)(=O)CCNCc1ccc(-c2ccc3ncnc(Nc4ccc(OCc5cccc(F)c5)c(Cl)c4)c3c2)o1 [Lapatinib] (partner 2 µM)
The method, boiled down:
(§1)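 Lung cancer cell lines were seeded in 1536-well plates and dosed by pin tool the next day, with either a single drug or a fixed anchor-drug dose combined with five library-drug doses (not always all listed) spaced in √10 steps. Five days later, one step fixed the cells and stained their nuclei (final 0.05% Triton X-100, 1% formaldehyde, 1 ug/ml Hoechst), and nuclei were counted on 4× images. Relative viability is the nuclei count in treated wells divided by the count in vehicle wells, and each value is the median of duplicate plates.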

Compound in the test “Omipalisib + Pictilisib”: COc1ncc(-c2ccc3nccc(-c4ccnnc4)c3c2)cc1NS(=O)(=O)c1ccc(F)cc1F [Omipalisib] + CS(=O)(=O)N1CCN(Cc2cc3nc(-c4cccc5[nH]ncc45)nc(N4CCOCC4)c3s2)CC1 [Pictilisib] (partner 1 µM)
The method, boiled down:
as §1

Compound in the test “Omipalisib + Linsitinib”: COc1ncc(-c2ccc3nccc(-c4ccnnc4)c3c2)cc1NS(=O)(=O)c1ccc(F)cc1F [Omipalisib] + C[C@]1(O)C[C@@H](c2nc(-c3ccc4ccc(-c5ccccc5)nc4c3)c3c(N)nccn32)C1 [Linsitinib] (partner 1 µM)
The method, boiled down: as §1

Compound in the test “Omipalisib + Tozasertib”: COc1ncc(-c2ccc3nccc(-c4ccnnc4)c3c2)cc1NS(=O)(=O)c1ccc(F)cc1F [Omipalisib] + Cc1cc(Nc2cc(N3CCN(C)CC3)nc(Sc3ccc(NC(=O)C4CC4)cc3)n2)n[nH]1 [Tozasertib] (partner 0.1 µM)
The method in brief: as §1

Compound in the test “Omipalisib + AZD7762”: COc1ncc(-c2ccc3nccc(-c4ccnnc4)c3c2)cc1NS(=O)(=O)c1ccc(F)cc1F [Omipalisib] + NC(=O)Nc1cc(-c2cccc(F)c2)sc1C(=O)N[C@H]1CCCNC1 [AZD7762] (partner 0.2 µM)
The method, boiled down:
as §1

Compound in the test “Omipalisib + Olaparib”: COc1ncc(-c2ccc3nccc(-c4ccnnc4)c3c2)cc1NS(=O)(=O)c1ccc(F)cc1F [Omipalisib] + O=C(c1cc(Cc2n[nH]c(=O)c3ccccc23)ccc1F)N1CCN(C(=O)C2CC2)CC1 [Olaparib] (partner 8 µM)
The method in brief:
as §1

Turning to HCC-366, the relative viability with Omipalisib + Lapatinib (first compound 0.0003 µM) turned out to be 0.898; with Omipalisib + Lapatinib (first compound 0.003 µM) it was 0.496; with Omipalisib + Lapatinib (first compound 0.03 µM), 0.186; in the test with Omipalisib + Pictilisib (first compound 0.0003 µM), 0.137; with Omipalisib + Pictilisib (first compound 0.003 µM), 0.1; with Omipalisib + Pictilisib (first compound 0.03 µM), 0.0924. Moreover, the relative viability worked out at 0.394 with Omipalisib + Linsitinib (first compound 0.0003 µM); 0.156 in the test with Omipalisib + Linsitinib (first compound 0.003 µM); 0.0479 with Omipalisib + Linsitinib (first compound 0.03 µM); 0.113 with Omipalisib + Tozasertib (first compound 0.0003 µM); 0.0977 with Omipalisib + Tozasertib (first compound 0.003 µM); 0.0346 in the test with Omipalisib + Tozasertib (first compound 0.03 µM). Besides, the relative viability with Omipalisib + AZD7762 (first compound 0.0003 µM) turned out to be 0.288; with Omipalisib + AZD7762 (first compound 0.003 µM) it was 0.208; with Omipalisib + AZD7762 (first compound 0.03 µM), 0.184; with Omipalisib + Olaparib (first compound 0.0003 µM), 0.327; with Omipalisib + Olaparib (first compound 0.003 µM) it was 0.137; in the test with Omipalisib + Olaparib (first compound 0.03 µM), 0.0831.
On to ABC-1, for which the relative viability stood at 0.994 in the test with Omipalisib + Lapatinib (first compound 0.0003 µM); 1.02 with Omipalisib + Lapatinib (first compound 0.003 µM); 0.769 in the test with Omipalisib + Lapatinib (first compound 0.03 µM); 0.72 in the test with Omipalisib + Pictilisib (first compound 0.0003 µM); 0.628 with Omipalisib + Pictilisib (first compound 0.003 µM); 0.533 with Omipalisib + Pictilisib (first compound 0.03 µM). For the same cell line, the relative viability in the test with Omipalisib + Linsitinib (first compound 0.0003 µM) was found to be 0.771; with Omipalisib + Linsitinib (first compound 0.003 µM) it was 0.572; in the test with Omipalisib + Linsitinib (first compound 0.03 µM) it was 0.586; with Omipalisib + Tozasertib (first compound 0.0003 µM), 0.161; with Omipalisib + Tozasertib (first compound 0.003 µM), 0.189; in the test with Omipalisib + Tozasertib (first compound 0.03 µM), 0.213. Also, the relative viability came to 0.888 with Omipalisib + AZD7762 (first compound 0.0003 µM); 0.929 with Omipalisib + AZD7762 (first compound 0.003 µM); 0.674 with Omipalisib + AZD7762 (first compound 0.03 µM); 0.911 with Omipalisib + Olaparib (first compound 0.0003 µM); 0.764 with Omipalisib + Olaparib (first compound 0.003 µM); 0.619 in the test with Omipalisib + Olaparib (first compound 0.03 µM).
On to NCI-H727, for which the relative viability with Omipalisib + Lapatinib (first compound 0.0003 µM) worked out at 0.723; in the test with Omipalisib + Lapatinib (first compound 0.003 µM), 0.776; with Omipalisib + Lapatinib (first compound 0.03 µM), 0.674; with Omipalisib + Pictilisib (first compound 0.0003 µM), 0.321; in the test with Omipalisib + Pictilisib (first compound 0.003 µM) it was 0.361; with Omipalisib + Pictilisib (first compound 0.03 µM), 0.231. Besides, the relative viability in the test with Omipalisib + Linsitinib (first compound 0.0003 µM) was found to be 0.276; with Omipalisib + Linsitinib (first compound 0.003 µM) it was 0.245; in the test with Omipalisib + Linsitinib (first compound 0.03 µM) it was 0.234; with Omipalisib + Tozasertib (first compound 0.0003 µM) it was 0.666; with Omipalisib + Tozasertib (first compound 0.003 µM), 0.623; with Omipalisib + Tozasertib (first compound 0.03 µM), 0.378. Further, the relative viability with Omipalisib + AZD7762 (first compound 0.0003 µM) stood at 0.627; with Omipalisib + AZD7762 (first compound 0.003 µM), 0.486; with Omipalisib + AZD7762 (first compound 0.03 µM), 0.412; with Omipalisib + Olaparib (first compound 0.0003 µM), 0.754; with Omipalisib + Olaparib (first compound 0.003 µM), 0.612; with Omipalisib + Olaparib (first compound 0.03 µM) it was 0.598.
Regarding NCI-H1355, the relative viability turned out to be 0.942 with Omipalisib + Lapatinib (first compound 0.0003 µM); 0.665 with Omipalisib + Lapatinib (first compound 0.003 µM); 0.54 with Omipalisib + Lapatinib (first compound 0.03 µM); 0.499 in the test with Omipalisib + Pictilisib (first compound 0.0003 µM); 0.295 with Omipalisib + Pictilisib (first compound 0.003 µM); 0.297 with Omipalisib + Pictilisib (first compound 0.03 µM). The relative viability with Omipalisib + Linsitinib (first compound 0.0003 µM) came to 0.737; in the test with Omipalisib + Linsitinib (first compound 0.003 µM), 0.584; with Omipalisib + Linsitinib (first compound 0.03 µM) it was 0.358; with Omipalisib + Tozasertib (first compound 0.0003 µM), 0.493; with Omipalisib + Tozasertib (first compound 0.003 µM), 0.409; with Omipalisib + Tozasertib (first compound 0.03 µM), 0.21. Besides, the relative viability worked out at 0.699 in the test with Omipalisib + AZD7762 (first compound 0.0003 µM); 0.571 with Omipalisib + AZD7762 (first compound 0.003 µM); 0.358 with Omipalisib + AZD7762 (first compound 0.03 µM); 0.731 with Omipalisib + Olaparib (first compound 0.0003 µM); 0.52 with Omipalisib + Olaparib (first compound 0.003 µM); 0.278 with Omipalisib + Olaparib (first compound 0.03 µM).
For the cell line LU99A, the relative viability with Omipalisib + Lapatinib (first compound 0.0003 µM) is 0.908; with Omipalisib + Lapatinib (first compound 0.003 µM) it was 0.71; with Omipalisib + Lapatinib (first compound 0.03 µM), 0.346; with Omipalisib + Pictilisib (first compound 0.0003 µM), 0.303; with Omipalisib + Pictilisib (first compound 0.003 µM), 0.242; with Omipalisib + Pictilisib (first compound 0.03 µM), 0.265. Further, the relative viability in the test with Omipalisib + Linsitinib (first compound 0.0003 µM) turned out to be 0.484; with Omipalisib + Linsitinib (first compound 0.003 µM), 0.382; with Omipalisib + Linsitinib (first compound 0.03 µM), 0.261; in the test with Omipalisib + Tozasertib (first compound 0.0003 µM) it was 0.289; with Omipalisib + Tozasertib (first compound 0.003 µM), 0.233; in the test with Omipalisib + Tozasertib (first compound 0.03 µM), 0.215. Further, the relative viability came out at 0.291 in the test with Omipalisib + AZD7762 (first compound 0.0003 µM); 0.265 in the test with Omipalisib + AZD7762 (first compound 0.003 µM); 0.165 with Omipalisib + AZD7762 (first compound 0.03 µM); 0.271 with Omipalisib + Olaparib (first compound 0.0003 µM); 0.27 in the test with Omipalisib + Olaparib (first compound 0.003 µM); 0.214 with Omipalisib + Olaparib (first compound 0.03 µM).
